Patent US20210330611A1, “THERAPY FOR NEUROLOGICAL DISEASES/DISORDERS” (priority 2020, published 2021)
Where two headings read alike, the source gives them in different places.

Assays:
[1] = system: fibrin-induced microglia activation; test: Image-based assay of fibrin-induced microglia activation (HTS and dose response); assay type: cell-based, rat; conditions: for inhibition at 10 µM: Rattus norvegicus, Microglia, read-out: Fibrin % inhibition
[2] = system: primary rat microglia; test: Cell toxicity (dead cells, size <150 μm2) in coated fibrin (cFib) assay;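 as to Fibrin % cell toxicity: share of dead cells sized under 150 µm2 at 10 µM in fibrin-stimulated microglia HTS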
[3] = system: primary rat microglia; test: Cell toxicity (dead cells, size <150 μm2) in LPS assay
[4] = system: LPS-induced microglia activation; test: Image-based assay of LPS-induced microglia activation (HTS and dose response); assay type: cell-based, rat; conditions: for inhibition at 10 µM: Rattus norvegicus, Microglia, read-out: LPS % inhibition
[5] = system: fibrin- and LPS-induced microglia activation; test: cells; assay type: cell-based, rat
[6] = primary microglia HTS, fibrin stimulation, increased cell size (>800 μm^2) as marker of activation
[7] = primary microglia HTS, fibrin stimulation, decreased size (<150 μm^2) as marker of toxicity
[8] = primary microglia HTS, LPS stimulation, decreased size (<150 μm^2) as marker of toxicity
[9] = 48 h, primary microglia HTS, LPS stimulation, increased cell size (>800 μm^2) as marker of activation
[10] = quadrant by fibrin and LPS inhibition in HTS of 1907 compounds
[11] = primary microglia HTS, 10 μM, fibrin-stimulated, cell size >800 μm^2 as marker of activation
[12] = primary microglia HTS, 10 μM, fibrin assay, cell size <150 μm^2 as marker of toxicity
[13] = primary microglia HTS, 10 μM, LPS assay, cell size <150 μm^2 as marker of toxicity
[14] = primary microglia HTS, 10 μM, LPS-stimulated, cell size >800 μm^2 as marker of activation
[15] = HTS of 1907 compounds, quadrant by fibrin and LPS inhibition
[16] = primary microglia HTS, fibrin stimulation, activation = cell size >800 μm2
[17] = primary microglia HTS, fibrin stimulation, toxicity = cell size <150 μm2
[18] = primary microglia HTS, LPS stimulation, toxicity = cell size <150 μm2
[19] = primary HTS, 10 μM, fibrin-stimulated primary microglia
[20] = primary HTS, 10 μM, fibrin assay, dead cells size <150 μm2
[21] = primary HTS, 10 μM, LPS assay, dead cells size <150 μm2
[22] = primary HTS, 10 μM, LPS-stimulated primary microglia
[23] = primary microglia HTS, LPS stimulation, increased cell size (>800 μm^2) as marker of activation

Molecule: CC(=O)OCC(=O)[C@@]1(O)[C@@H](C)C[C@H]2[C@@H]3CCC4=CC(=O)C=C[C@]4(C)[C@@]3(F)[C@@H](O)C[C@@]21C [Betamethasone Acetate]
- inhibition at 10 µM [1, 6]: 107%
- Fibrin % cell toxicity [2, 7]: 3%
- LPS % cell toxicity [3, 8]: 4%
- inhibition at 10 µM [4, 9]: 100%
- Quadrant (FIG. 5b) [5, 10]: Q2

Molecule: C[C@H](CCC(=O)O)[C@H]1CC[C@H]2[C@@H]3[C@@H](O)C[C@@H]4C[C@H](O)CC[C@]4(C)[C@H]3CC[C@]12C [Ursodeoxycholic Acid]
- Fibrin % inhibition [1, 11]: −18%
- Fibrin % cell toxicity [2, 12]: 1%
- LPS % cell toxicity [3, 13]: 0%
- LPS % inhibition [4, 14]: 1%
- Quadrant (FIG. 5b) [5, 15]: Q4

Molecule: CC(C(=O)O)c1ccc(-c2ccccc2)c(F)c1 (stereo not drawn) [Flurbiprofen]
- inhibition at 10 µM [1, 16]: 17%
- Fibrin % cell toxicity [2, 17]: 0%
- LPS % cell toxicity [3, 18]: 0%
- inhibition at 10 µM ([4]; 48 h, primary microglia HTS, LPS stimulation, activation = cell size >800 μm2): 33%
- Quadrant (FIG. 5b) [5, 10]: Q4

Molecule: CN(C)CCc1c[nH]c2ccc(C[C@H]3COC(=O)N3)cc12 [Zolmitriptan]
- inhibition at 10 µM [1, 11]: 9%
- Fibrin % cell toxicity [2, 12]: 1%
- LPS % cell toxicity [3, 13]: 0%
- inhibition at 10 µM [4, 14]: 18%
- Quadrant (FIG. 5b) [5, 15]: Q4

Molecule: C=CC1=C(C(=O)O)N2C(=O)[C@@H](NC(=O)/C(=N\OCC(=O)O)c3csc(N)n3)[C@H]2SC1 [Cefixime]
- inhibition at 10 µM [1, 19]: 0%
- Fibrin % cell toxicity [2, 20]: 1%
- LPS % cell toxicity [3, 21]: 0%
- inhibition at 10 µM [4, 22]: -8%
- Quadrant (FIG. 5b) ([5]; primary HTS, 10 μM): Q4

Molecule: O=C(O)[C@H]1/C(=C/CO)O[C@@H]2CC(=O)N21 [Clavulanate]
- inhibition at 10 µM [1, 19]: -16%
- Fibrin % cell toxicity [2, 20]: 0%
- LPS % cell toxicity [3, 21]: 0%
- inhibition at 10 µM [4, 22]: 5%
- Quadrant (FIG. 5b) ([5]; primary HTS, 10 μM): Q4

Molecule: C=C1/C(=C\C=C2/CCC[C@]3(C)[C@@H]([C@H](C)/C=C/[C@@H](O)C4CC4)CC[C@@H]23)C[C@@H](O)C[C@@H]1O [Calcipotriol]
- inhibition at 10 µM [1, 19]: 2%
- Fibrin % cell toxicity [2, 20]: 1%
- LPS % cell toxicity [3, 21]: 0%
- inhibition at 10 µM [4, 22]: -8%
- Quadrant (FIG. 5b) ([5]; primary HTS, 10 μM): Q4

Molecule: NC(=O)C[S+]([O-])C(c1ccccc1)c1ccccc1 (stereo not drawn) [Modafinil]
- inhibition at 10 µM [1, 6]: -5%
- Fibrin % cell toxicity [2, 7]: 1%
- LPS % cell toxicity [3, 8]: 0%
- inhibition at 10 µM [4, 9]: 25%
- Quadrant (FIG. 5b) [5, 10]: Q4

Molecule: Cc1c(N(C)CS(=O)(=O)[O-])c(=O)n(-c2ccccc2)n1C.[Na+] [Dipyrone]
- Fibrin % inhibition [1, 6]: 106%
- Fibrin % cell toxicity [2, 7]: 26%
- LPS % cell toxicity [3, 8]: 36%
- LPS % inhibition [4, 23]: 101%
- Quadrant (FIG. 5b) [5, 10]: Q2

Molecule: Cc1ccnc(NS(=O)(=O)c2ccc(N)cc2)n1 [Sulfamerazine]
- inhibition at 10 µM [1, 11]: -2%
- Fibrin % cell toxicity [2, 12]: 1%
- LPS % cell toxicity [3, 13]: 0%
- inhibition at 10 µM [4, 14]: 12%
- Quadrant (FIG. 5b) [5, 15]: Q4

Molecule: CC1(C)S[C@@H]2[C@H](NC(=O)[C@H](C(=O)O)c3ccsc3)C(=O)N2[C@H]1C(=O)O [Ticarcillin Disodium]
- inhibition at 10 µM [1, 11]: -22%
- Fibrin % cell toxicity [2, 12]: 0%
- LPS % cell toxicity [3, 13]: 0%
- inhibition at 10 µM [4, 14]: 7%
- Quadrant (FIG. 5b) [5, 15]: Q4

Molecule: C[C@@H]1C[C@H]2[C@@H]3CCC4=CC(=O)C=C[C@]4(C)[C@@]3(F)[C@@H](O)C[C@]2(C)[C@H]1C(=O)CO [Desoximetasone]
- inhibition at 10 µM [1, 6]: 101%
- Fibrin % cell toxicity [2, 7]: 5%
- LPS % cell toxicity [3, 8]: 3%
- inhibition at 10 µM [4, 9]: 91%
- Quadrant (FIG. 5b) [5, 10]: Q2

Molecule: C[C@](N)(Cc1ccc(O)c(O)c1)C(=O)O [L-alpha-methyl Dopa, Methyldopa]
- Fibrin % inhibition [1, 16]: 4%
- Fibrin % cell toxicity [2, 17]: 0%
- LPS % cell toxicity [3, 18]: 0%
- LPS % inhibition ([4]; primary microglia HTS, LPS stimulation, activation = cell size >800 μm2): 15%
- Quadrant (FIG. 5b) [5, 10]: Q4

Molecule: O=C(O)CCNC(=O)c1ccccc1 [Betamipron]
- inhibition at 10 µM [1, 19]: -6%
- Fibrin % cell toxicity [2, 20]: 1%
- LPS % cell toxicity [3, 21]: 0%
- inhibition at 10 µM [4, 22]: 14%
- Quadrant (FIG. 5b) ([5]; primary HTS, 10 μM): Q4

Molecule: C=C1/C(=C\C=C2/CCC[C@]3(C)[C@@H]([C@H](C)CCCC(C)(C)O)CC[C@@H]23)C[C@@H](O)C[C@@H]1O [Calcitriol]
- inhibition at 10 µM [1, 19]: -46%
- Fibrin % cell toxicity [2, 20]: 0%
- LPS % cell toxicity [3, 21]: 1%
- inhibition at 10 µM [4, 22]: 0%
- Quadrant (FIG. 5b) ([5]; primary HTS, 10 μM): Q4

Molecule: O=C(O)[C@@H](S)[C@@H](S)C(=O)O [Succimer]
- inhibition at 10 µM [1, 11]: -37%
- Fibrin % cell toxicity [2, 12]: 0%
- LPS % cell toxicity [3, 13]: 0%
- inhibition at 10 µM [4, 14]: -5%
- Quadrant (FIG. 5b) [5, 15]: Q4

Molecule: Cc1cc2cc3c(C)cc(=O)oc3c(C)c2o1 [Trioxsalen]
- inhibition at 10 µM [1, 11]: -18%
- Fibrin % cell toxicity [2, 12]: 1%
- LPS % cell toxicity [3, 13]: 0%
- inhibition at 10 µM [4, 14]: 18%
- Quadrant (FIG. 5b) [5, 15]: Q4

Molecule: CC(=O)Oc1cccc(C)c1 [Meta-cresyl Acetate]
- inhibition at 10 µM [1, 6]: -7%
- Fibrin % cell toxicity [2, 7]: 1%
- LPS % cell toxicity [3, 8]: 0%
- inhibition at 10 µM [4, 9]: -3%
- Quadrant (FIG. 5b) [5, 10]: Q4

Molecule: Colistimethate sodium [reference compound]
- IC50 ([1]; Table 1, dose response 0.001-20 μM, triplicates, primary rat microglia, 48 h, read-out: Fibrin IC50): > 20 µM
- IC50 ([1]; dose response, fibrin-induced microglia activation, read-out: Fibrin IC50): > 20 µM
- IC50 ([1]; fibrin-induced microglia activation, dose response, read-out: Fibrin IC50 (uM) (Suppl. Table 7)): > 20 µM
- Fibrin % inhibition [1, 6]: 72%
- Fibrin % cell toxicity [2, 7]: 1%
- IC50 ([2]; read-out: Cell Toxicity IC50 (uM) [cFib assay], cFib assay): > 20 µM
- LPS % cell toxicity [3, 8]: 4%
- IC50 ([3]; read-out: Cell Toxicity IC50 (uM) [LPS assay], LPS assay): > 20 µM
- IC50 ([4]; LPS-induced microglia activation, dose response, read-out: LPS IC50 (uM) (Suppl. Table 7)): > 20 µM
- IC50 ([4]; Table 1, dose response 0.001-20 μM, triplicates, primary rat microglia, 48 h, read-out: LPS IC50): > 20 µM
- IC50 ([4]; dose response, LPS-induced microglia activation, read-out: LPS IC50): > 20 µM
- LPS % inhibition [4, 23]: 112%
- Hit ([5]; HTS hit classification): HIT (Hits were defined as molecules that exhibited greater than 50% inhibition of either fibrin or LPS activation)
- Quadrant (FIG. 5b) [5, 15]: Q2
- Quadrant (FIG. 5b) ([5]; Table 1, screen at 10 μM): Q2
- Cherry-picked Hit (Suppl. Table 7) ([5]; hit classification in microglia HTS): HIT (Hits were defined as molecules that exhibited greater than 50% inhibition of either fibrin or LPS activation)
- Quadrant (FIG. 5b) [5, 10]: Q2

Molecule: CO[C@@H]1[C@@H](OC(N)=O)[C@@H](O)[C@H](Oc2ccc3c(O)c(NC(=O)c4ccc(O)c(CC=C(C)C)c4)c(=O)oc3c2C)OC1(C)C [Novobiocin]
- inhibition at 10 µM [1, 6]: -17%
- Fibrin % cell toxicity [2, 7]: 0%
- LPS % cell toxicity [3, 8]: 0%
- inhibition at 10 µM [4, 9]: 8%
- Quadrant (FIG. 5b) [5, 10]: Q4

Molecule: CC(=O)NC1CCSC1=O (stereo not drawn) [Citiolone]
- inhibition at 10 µM [1, 19]: -32%
- Fibrin % cell toxicity [2, 20]: 0%
- LPS % cell toxicity [3, 21]: 0%
- inhibition at 10 µM [4, 22]: 7%
- Quadrant (FIG. 5b) ([5]; primary HTS, 10 μM): Q4
